Data taken from patent US20040248918A1, “N-phenyl-2-pyrimidine-amine derivatives and process for the preparation thereof” (IL YANG PHARM. CO., LTD., priority 2003, published 2004).
Where two headings read alike, the source gives them in different places.

Experiments:
Format in all cases: cell-based
[1] = system: K562 cancer cell (CML cell line); assay: Growth inhibition of K562 cancer cell (MTT); details: for IC50: K562, 2 days, MTT; for Improved activity versus Imatinib mesylate: K562
Method: In the present experiment, the inhibitory activity of the compound of formula (1) was determined against the growth of K562 cancer cell. First, the cells were allowed to stand in RPMI (Roswell Park Memorial Institute)-1640 medium containing 10% (v/v) fetal bovine serum in an incubator of 37° C. and 5% by volume of CO2. The cancer cells (1000 cells) were transferred to a 96-well plate, and the test compound was diluted. The plate was allowed to stand under the above mentioned conditions for 2 days. […] The supernatant was removed to leave the resulting crystal.

[2] = system: L1210 cancer cell (leukemia cell line); assay: Growth inhibition of L1210 cancer cell (MTT); details: Mus musculus
Method: (§1) In the present experiment, the inhibitory activity of the compound of formula (1) was determined against the growth of K562 cancer cell. First, the cells were allowed to stand in RPMI (Roswell Park Memorial Institute)-1640 medium containing 10% (v/v) fetal bovine serum in an incubator of 37° C. and 5% by volume of CO2. The cancer cells (1000 cells) were transferred to a 96-well plate, and the test compound was diluted. The plate was allowed to stand under the above mentioned conditions for 2 days. After this treatment, to the cells was added 0.2% MTT (3-[4,5-dimethylthiazol-2-yl]-2,5-diphenyltetrazolium bromide) solution, and the resulting mixture was allowed to stand under the constant temperature-condition for 4 hours. The supernatant was removed to leave the resulting crystal. DMSO was added to dissolve the crystal, and the absorbance of the solution was measured at 540 nm. IC50 value was calculated using a computer system according to the following formula: […]
In the present experiment, the inhibitory activity of the compound of formula (1) was determined against the growth of L1210 cancer cell. The test was performed according to the same procedure as Experiment 1.

lung cancer cell (A549) = assay: Growth inhibition of A549 (MTT); parameters: IC50 as fraction of that of Imatinib mesylate: unit not given beside the values; details: for IC50: Homo sapiens
Method: as §1
(§2) The test was performed according to the same procedure as Experiment 1.

[3] = system: gastric cancer cell (KATO III); assay: Growth inhibition of KATO III (MTT); parameters: IC50 as fraction of that of Imatinib mesylate: unit not given beside the values; details: for IC50: Homo sapiens
Method: as §1, §2

[4] = system: oral epithelial cancer cell (KB); assay: Growth inhibition of KB (MTT); parameters: IC50 as fraction of that of Imatinib mesylate: unit not given beside the values; details: for IC50: Homo sapiens
Method: as §1, §2

[5] = system: hematologic malignancy cell (HL-60); assay: Growth inhibition of HL-60 (MTT); parameters: IC50 as fraction of that of Imatinib mesylate: unit not given beside the values; details: for IC50: Homo sapiens
[6] = system: ovarian cancer cell (SK-OV-03); assay: Growth inhibition of SK-OV-03 (MTT); parameters: IC50 as fraction of that of Imatinib mesylate: unit not given beside the values
Method: as §1, §2

[7] = system: breast cancer cell (MCF-7); assay: Growth inhibition of MCF-7 (MTT); parameters: IC50 as fraction of that of Imatinib mesylate: unit not given beside the values; details: for IC50: Homo sapiens, MCF7
Method: as §1, §2

[8] = system: prostatic cancer cell (DU-145); assay: Growth inhibition of DU-145 (MTT); parameters: IC50 as fraction of that of Imatinib mesylate: unit not given beside the values; details: for IC50: Homo sapiens
Method: as §1, §2

[9] = system: acute myelogenous leukemia cell (KG-1); assay: Growth inhibition of KG-1 (MTT); details: for IC50: Homo sapiens
[10] = system: lymphoma cell (RPMI-6666); assay: Growth inhibition of RPMI-6666 (MTT); details: for IC50: Homo sapiens
Method: as §1, §2

hepatoma cell (SNU-182) = assay: Growth inhibition of SNU-182 (MTT); parameters: IC50 as fraction of that of Imatinib mesylate: unit not given beside the values; details: for IC50: Homo sapiens
Method: as §1, §2

[11] = system: pancreatic cancer cell of PANC-1; assay: Growth inhibition of PANC-1 (MTT); details: for IC50: Homo sapiens, read-out: IC50
[12] = system: colon cancer cell of SNU-C1; assay: Growth inhibition of SNU-C1 (MTT); details: for IC50: Homo sapiens, read-out: IC50
[13] = system: rectal cancer cell of CMT-93; assay: Growth inhibition of CMT-93 (MTT); details: for IC50: CMT93, read-out: IC50
Method: as §1, §2

[14] = system: cervical cancer cell of HeLa229; assay: Growth inhibition of HeLa 229 (MTT); details: for IC50: Homo sapiens, read-out: IC50
[15] = system: encephalophyma cell of A172; assay: Growth inhibition of A172 (MTT); details: for IC50: Homo sapiens, A 172, read-out: IC50
Method: as §1, §2

[16] = system: bladder cancer cell of HT-1197; assay: Growth inhibition of HT-1197 (MTT); details: for IC50: Homo sapiens, HT1197, read-out: IC50
Method: as §1, §2

[17] = Homo sapiens, K562, 48 h, read-out: IC50

How did the IC50 [1, 17] turn out when `CS(=O)(=O)O.Cc1ccc(NC(=O)c2ccc(CNN3CCN(C)CC3)cc2)cc1Nc1nccc(-c2cccnc2)n1` [Example 4, 4-(4-methylpiperazin-1-ylaminomethyl)-N-[4-methyl-3-(4-(pyridin-3-yl)pyrimidin-2-yl)aminophenyl]benzamide methanesulfonate] was run?
Its IC50 is no more than 0.1 µg/mL.

And the IC50 ([1]; methanesulfonate)?
The IC50 was less than 0.10 µg/mL.

And the “Improved activity versus Imatinib mesylate” value ([1]; listed as example 4, methanesulfonate)?
Its value is 5 times.

And the “Improved activity versus Imatinib mesylate” value ([1]; methanesulfonate)?
The value was no less than 5 times.

What about the IC50 [2] of the same compound?
Its IC50 is 26.9 µg/mL.

And the IC50 (lung cancer cell (A549))?
Its IC50 is 46.6 µg/mL.

And the IC50 [3]?
The IC50 was 32.4 µg/mL.

And the IC50 [4]?
The IC50 was 35 µg/mL.

What about the IC50 [5] of the same compound?
Its IC50 is 27.8 µg/mL.

And the IC50 [6]?
Its IC50 is greater than 50 µg/mL.

What about the IC50 [7] of the same compound?
Its IC50 is greater than 50 µg/mL.

And the IC50 [8]?
Its IC50 is 41.3 µg/mL.

What about the IC50 [9] of the same compound?
The IC50 was greater than 50 µg/mL.

And the IC50 [10]?
The IC50 was 33.8 µg/mL.

What about the IC50 (hepatoma cell (SNU-182)) of the same compound?
Its IC50 is 48 µg/mL.

What about the “Improved activity versus 5-Fu” value [11] of the same compound?
Its value is 10 times.

And the IC50 [11]?
The IC50 was 53.8 µg/mL.

And the “Improved activity versus 5-Fu” value [12]?
Its value is 9 times.

What about the “Improved activity versus Imatinib mesylate” value [12] of the same compound?
Its value is 3 times.

And the “Improved activity versus cisplatin” value [12]?
Its value is 30 times.

What about the IC50 [12] of the same compound?
The IC50 was 10 µg/mL.

What about the IC50 [13] of the same compound?
Its IC50 is 8.39 µg/mL.

And the IC50 [14]?
The IC50 was 48.5 µg/mL.

And the IC50 [15]?
Its IC50 is 39.3 µg/mL.

What about the IC50 [16] of the same compound?
Its IC50 is 50.1 µg/mL.

How did the IC50 [1, 17] turn out when `CN1CCCN(Cc2ccc(C(=O)Nc3ccc(Nc4nccc(-c5cccnc5)n4)cc3)cc2)CC1.CS(=O)(=O)O` [Example 10, 4-(4-methylhomopiperazin-1-ylmethyl)-N-[4-(4-(pyridin-3-yl)pyrimidin-2-yl)aminophenyl]benzamide methanesulfonate] was run?
Its IC50 is 3.85 µg/mL.

What about the IC50 [2] of the same compound?
Its IC50 is 3.4 µg/mL.

What about the “IC50 as fraction of that of Imatinib mesylate” value (“IC50 as fraction” for short) (lung cancer cell (A549)) of the same compound?
The value was 1/10.

What about the IC50 (lung cancer cell (A549)) of the same compound?
The IC50 was 3.5 µg/mL.

What about the “IC50 as fraction” value [3] of the same compound?
The value was 1/10.

What about the IC50 [3] of the same compound?
Its IC50 is 3.26 µg/mL.

What about the “IC50 as fraction” value [4] of the same compound?
The value was 1/5.

What about the IC50 [4] of the same compound?
The IC50 was 8.99 µg/mL.

And the “IC50 as fraction” value [5]?
The value was 1/8.

And the IC50 [5]?
The IC50 was 4.28 µg/mL.

What about the IC50 [6] of the same compound?
The IC50 was 25.5 µg/mL.

And the “IC50 as fraction” value [6]?
Its value is 1/2.

What about the “IC50 as fraction” value [7] of the same compound?
Its value is 1/7.

What about the IC50 [7] of the same compound?
Its IC50 is 6.96 µg/mL.

What about the “IC50 as fraction” value [8] of the same compound?
The value was 1/2.

And the IC50 [8]?
The IC50 was 5.51 µg/mL.

And the “IC50 as fraction” value [9]?
The value was 1/10.

What about the IC50 [9] of the same compound?
Its IC50 is 3.31 µg/mL.

And the “IC50 as fraction” value [10]?
Its value is 1/15.

And the IC50 [10]?
Its IC50 is 2.12 µg/mL.

What about the “IC50 as fraction” value (hepatoma cell (SNU-182)) of the same compound?
The value was 1/5.

And the IC50 (hepatoma cell (SNU-182))?
Its IC50 is 7.94 µg/mL.

And the “Improved activity versus 5-Fu” value [11]?
Its value is greater than 120 times.

And the “Improved activity versus Imatinib mesylate” value [11]?
The value was “more than 10 times”.

And the “Improved activity versus cisplatin” value [11]?
Its value is “more than 9 times”.

What about the IC50 [11] of the same compound?
Its IC50 is 4.62 µg/mL.

What about the “Improved activity versus 5-Fu” value [12] of the same compound?
The value was greater than 80 times.

What about the “Improved activity versus Imatinib mesylate” value [12] of the same compound?
The value was “more than 25 times”.

What about the “Improved activity versus cisplatin” value [12] of the same compound?
Its value is “more than 250 times”.

What about the IC50 [12] of the same compound?
Its IC50 is 1.2 µg/mL.

What about the “Improved activity versus Imatinib mesylate” value [13] of the same compound?
The value was greater than 1.5 times.

What about the IC50 [13] of the same compound?
Its IC50 is 4.04 µg/mL.

What about the “Improved activity versus Imatinib mesylate” value [14] of the same compound?
The value was “more than 8 times”.

What about the IC50 [14] of the same compound?
The IC50 was 5.5 µg/mL.

What about the “Improved activity versus 5-Fu” value [15] of the same compound?
Its value is “more than 18 times”.

What about the “Improved activity versus Imatinib mesylate” value [15] of the same compound?
The value was “more than 8 times”.

And the IC50 [15]?
The IC50 was 5.5 µg/mL.

What about the “Improved activity versus 5-Fu” value [16] of the same compound?
The value was greater than 55 times.

And the “Improved activity versus Imatinib mesylate” value [16]?
Its value is greater than 32 times.

And the “Improved activity versus cisplatin” value [16]?
The value was “more than 4.4 times”.

And the IC50 [16]?
The IC50 was 1.7 µg/mL.
